In data set [1] the test system is HSC-3 cells. Put plainly: Internalization studies in HSC-3 monolayers (4 °C vs 37 °C, endocytosis inhibitors), flow cytometry. The conditions noted are these: for reduction of cellular uptake of IRDye-A20 by endocytosis inhibitor: HSC-3 cells pre-incubated 30 min with Genistein 400 µM, Chlorpromazin or EIPA 100 µM, then IRDye-A20 500 nM for 3 h, n = 3–4. In kind it is cell-based, human.

Data set [2] relates to HSC-3 cells. To be noted: 24 h, 0.1–4 µM, serum-free medium, highest concentration 4 µM, p > 0.05. The protocol: (§1) Cells were seeded into 96-well plates (100 µL, 4.10^4 cells/mL) for 5 days, then culture medium was replaced with 0.1–4 µM of IRDye-conjugates diluted in serum-free medium for 24 h at 37 °C. Afterwards, cells were washed, fixed with 70% ethanol for 10 min and further incubated with 0.2% crystal violet in 20% ethanol for 15 min. After several washes, crystal violet was solubilized using 0.1% acetic acid and 50% ethanol and optical density was recorded at 540 nm with Multiskan microplate readers (Ascent, Labsystems). Cell viability was calculated by normalizing to that of the control condition.

The next data set concerns MRC-5 cells. The conditions noted are these: 24 h, 0.1–4 µM, serum-free medium, highest concentration 4 µM, p > 0.05. The method, then: as §1
Another data set concerns H10 HSC-3 spheroids. Put plainly: Accumulation in homotypic H10 (HSC-3) spheroids, flow cytometry. In kind it is cell-based, human.

In the case of `CN(C)CCCN1c2ccccc2Sc2ccc(Cl)cc21` [chlorpromazine, Chlorpromazin], the “reduction of cellular uptake of IRDye-A20 by endocytosis inhibitor” value in the data set on HSC-3 cells [1] is recorded as “not affected”.
On the same count and under the same terms, in the case of `O=c1c(-c2ccc(O)cc2)coc2cc(O)cc(O)c12` [genistein, Genistein] it was 30%; in that of `CCN(c1nc(N)c(C(=O)N=C(N)N)nc1Cl)C(C)C` [EIPA, (5-(N-Ethyl-N-isopropyl)-Amiloride)], “not affected”.
Regarding “CGGGSGGGSLRDQTGLKNPVQLARVAV [IRDye-Scr, IRDye 680 conjugated to a scramble version of the A20 peptide, control for non-specific delivery]”, the “loss of viability (crystal violet)” value in the data set on HSC-3 cells [2] and in the data set on MRC-5 cells was “Loss of viability was not detected” in each case. In the data set on HSC-3 cells [1] (HSC-3 monolayers, 3 h, 1-500 nM, n = 4), the “inhibition of internalization at 4 °C versus 37 °C” value was “significant inhibition of internalization at 4 °C was observed only at the highest concentrations”. The “MFI, fold less compared to IRDye-A20” value in the data set with H10 HSC-3 spheroids (100 nM, 24 h) came out at 20 fold. For the same compound, the “percentage of labeled cells” value is given as 3% in the data set on H10 HSC-3 spheroids (3 h, maximum over 1-250 nM, n = 4–5); 7% with H10 HSC-3 spheroids (6 h, maximum over 1-250 nM, n = 4–5); at most 3% with H10 HSC-3 spheroids (24 h, 50 nM); 11% with H10 HSC-3 spheroids (24 h, 100 nM); 45% in the data set on H10 HSC-3 spheroids (24 h, 250 nM).

These data come from paper PMC11218202, “Targeting of 3D oral cancer spheroids by αVβ6 integrin using near-infrared peptide-conjugated IRDye 680” (Cancer Cell International, 2024).
